Patent publication US12448378B2, “Fluoropyrrolopyridine compound and application thereof” (Wuxi Life Fountain Biotech Co., Ltd, priority 2020, dated 2025)
One block for each compound: values may come before it.

Columns and labels:
[1] = biological target: human ATR kinase (ATR/ATRIP (h)) (Homo sapiens (Human), UniProt Q13535); test: ATR enzyme activity in vitro (HTRF kinase assay); type: biochemical; conditions: 10 μM ATP, GST-cMyc-p53 substrate
Experimental: The inhibitory activity of the test compounds against human ATR kinase was evaluated by measuring IC50 value.
ATR/ATRIP (h) was incubated in detection buffer containing 50 nM GST-cMyc-p53 and Mg/ATP (10 μM). The reaction was initiated by adding Mg/ATP mixture. After incubation at room temperature for 30 minutes, the reaction was terminated by adding a termination solution containing EDTA. Finally, a detection buffer containing d^2-labeled anti-GST monoclonal antibody and europium-labeled anti-phospho-Ser15 antibody against phosphorylated p53 were added. Plates were then read in time-resolved fluorescence mode for homogeneous time resolution.
The fluorescence (HTRF) signal was determined according to the formula HTRF=10000×(Em665 nm/Em620 nm).

[2] = tested on: tumor cell line LoVo; test: In vitro LoVo cell proliferation inhibition (CellTiter-Glo); type: cell-based; conditions: Homo sapiens, LoVo cells
Experimental: In this experiment, the inhibitory effect of the compounds on cell proliferation was studied by detecting the effect of the compounds on the in vitro cell activity in the tumor cell line LoVo.
CellTiter-Glo Luminescent Cell Viability Assay
The following steps were carried out according to the instructions of PromegaCellTiter-Glo luminescent cell viability assay kit (Promega-G7573).
(1) CellTiter-Glo buffer was thawed and placed at room temperature.
(2) CellTiter-Glo substrate was placed at room temperature.
(3) CellTiter-Glo working solution was prepared by adding CellTiter-Glo buffer to a vial of CellTiter-Glo substrate to dissolve the substrate.
(4) Slowly vortexed to fully dissolve. […]
(8) The culture plate was left at room temperature for 10 minutes to stabilize the luminescence signal.
(9) The luminescence signal was detected on the SpectraMax i3x of Molecular Devices plate reader.
The Inhibition rate (IR) of the test compound was calculated using the following formula: IR (%)=(1−(RLU compound−RLU blank control)/(RLU solvent control−RLU blank control))*100%. The inhibition rates of different concentrations of the compounds were calculated in Excel, and then the inhibition curves were made by GraphPad Prism software and the related parameters were calculated, including the minimum inhibition rate, the maximum inhibition rate and IC50.

[3] = In vivo pharmacokinetics in female Balb/c Nude mice
Experimental: Test sample: On the basis of the above experiments, compound 1 was selected for further experiments.
Experimental methods: The purpose of this study was to determine the pharmacokinetic parameters of compound 1 and to calculate its oral bioavailability in female Balb/c Nude mice. This project used 4 female Balb/c Nude mice. Two mice were administered intravenously at a dose of 1 mg/kg, and plasma samples were collected at 0 hours (before administration) and 0.0833, 0.25, 0.5, 1, 2, 4, 6, 8, 24 hours after administration. The other two mice were administered orally by gavage at a dose of 10 mg/kg or 25 mg/kg, and plasma samples were collected at 0 hours (before administration) and 0.25, 0.5, 1, 2, 4, 6, 8, 24 hours after administration. The collected samples were then analyzed by LC/MS/MS and data were collected. The collected analysis data were used to calculate the relevant pharmacokinetic parameters by Phoenix WinNonlin 6.2.1 software.

[4] = tested on: human gastric cancer SNU-601 xenograft tumor; test: In vivo efficacy, human gastric cancer cell SNU-601 CDX xenograft model; set-up: species or system mice; conditions: for tumor volume: day 21, CB17 SCID mice
Source text: The main objective of this study was to study the antitumor efficacy of the test sample on the xenograft tumor model of human gastric cancer cell SNU-601.
• Species: mice • Strain: CB17 SCID mice • Supplier: Huafukang Laboratory Animal Technology Co., Ltd. • Week age: 6-8 weeks old • Gender: female 2. Cell Culture
Human gastric cancer SNU-601 cells, sourced from KCLB (Cat. No.: 00601), were maintained and passaged by HD Biosciences (Shanghai) Co., Ltd. In vitro culture conditions were RPMI 1640 culture medium (containing 300 mg/L L-glutamine) with 10% fetal bovine serum, 25 mM HEPES and 25 mM sodium bicarbonate, incubated in 5% CO2 incubator at 37° C., and passaged for two or three times a week. When the number of cells reached the requirement, the cells were collected and counted. 0.2 mL (5×10^6 cells) SNU-601 cells (resuspended in DPBS:Matrigel=1:1) were subcutaneously inoculated into the right back of each mouse, and the group administration was started when the average tumor volume reached 147.61 mm^3.
Administration dosage: Compound 1 was orally administered at three doses of 15 mg/kg (administered for 3 days without administration for 4 days), 10 mg/kg (administered for 3 days without administration for 4 days) and 5 mg/kg (continuous administration).
Tumor diameters were measured with vernier calipers three times a week. The tumor volume was calculated by the formula: V=0.5×a×b^2, wherein a and b referred to the long and short diameter of the tumor, respectively. The calculation formula of relative tumor volume (RTV) was: RTV (%)=(Vt/V1)×100; the calculation formula of animal body weight change (BWC) was: BWC (%)=(BWt−BW1)/BW1×100, wherein V1 and BW1 referred to the tumor volume and body weight of a certain animal on the day of group administration, and Vt and BWt referred to the tumor volume and body weight of a certain animal at a certain measurement.
The antitumor efficacy of the compounds was evaluated by TGI (%) or relative tumor proliferation rate T/C (%). Relative tumor proliferation rate T/C (%)=TRTV/CRTV×100 (TRTV: mean RTV of the treatment group; CRTV: mean RTV of the negative control group). The relative tumor volume (RTV) was calculated according to the results of tumor measurement, and the calculation formula was RTV=Vt/V1, wherein V1 was the tumor volume measured at the time of group administration (that is, D1), Vt was the tumor volume at a certain measurement, and the data of TRTV and CRTV were taken on the same day.
TGI (%) reflected the tumor growth inhibition rate. TGI (%)=[(1−(average tumor volume at the end of administration of a certain treatment group−average tumor volume at the beginning of administration of this treatment group))/(average tumor volume at the end of treatment in the solvent control group−average tumor volume at the beginning of treatment in the solvent control group)]×100.
After the experiment, the tumor weight would be detected, and the percentage of Tweight/Cweight would be calculated. Tweight and Cweight referred to the tumor weight of the administration group and the solvent control group, respectively.
In this experiment, the xenograft tumor model of human gastric cancer cell SNU601 was used to evaluate the in vivo efficacy of the test compounds. During the whole administration period, no animals were discontinued due to body weight loss of more than 10%, and the efficacy test was terminated on the 21st day after administration.

[5] = mouse, plasma, intravenous 1 mg/kg
[6] = whole experimental period, compound 1 administration group

Sequence of human ATR kinase (ATR/ATRIP (h)) (Q13535 whole entry): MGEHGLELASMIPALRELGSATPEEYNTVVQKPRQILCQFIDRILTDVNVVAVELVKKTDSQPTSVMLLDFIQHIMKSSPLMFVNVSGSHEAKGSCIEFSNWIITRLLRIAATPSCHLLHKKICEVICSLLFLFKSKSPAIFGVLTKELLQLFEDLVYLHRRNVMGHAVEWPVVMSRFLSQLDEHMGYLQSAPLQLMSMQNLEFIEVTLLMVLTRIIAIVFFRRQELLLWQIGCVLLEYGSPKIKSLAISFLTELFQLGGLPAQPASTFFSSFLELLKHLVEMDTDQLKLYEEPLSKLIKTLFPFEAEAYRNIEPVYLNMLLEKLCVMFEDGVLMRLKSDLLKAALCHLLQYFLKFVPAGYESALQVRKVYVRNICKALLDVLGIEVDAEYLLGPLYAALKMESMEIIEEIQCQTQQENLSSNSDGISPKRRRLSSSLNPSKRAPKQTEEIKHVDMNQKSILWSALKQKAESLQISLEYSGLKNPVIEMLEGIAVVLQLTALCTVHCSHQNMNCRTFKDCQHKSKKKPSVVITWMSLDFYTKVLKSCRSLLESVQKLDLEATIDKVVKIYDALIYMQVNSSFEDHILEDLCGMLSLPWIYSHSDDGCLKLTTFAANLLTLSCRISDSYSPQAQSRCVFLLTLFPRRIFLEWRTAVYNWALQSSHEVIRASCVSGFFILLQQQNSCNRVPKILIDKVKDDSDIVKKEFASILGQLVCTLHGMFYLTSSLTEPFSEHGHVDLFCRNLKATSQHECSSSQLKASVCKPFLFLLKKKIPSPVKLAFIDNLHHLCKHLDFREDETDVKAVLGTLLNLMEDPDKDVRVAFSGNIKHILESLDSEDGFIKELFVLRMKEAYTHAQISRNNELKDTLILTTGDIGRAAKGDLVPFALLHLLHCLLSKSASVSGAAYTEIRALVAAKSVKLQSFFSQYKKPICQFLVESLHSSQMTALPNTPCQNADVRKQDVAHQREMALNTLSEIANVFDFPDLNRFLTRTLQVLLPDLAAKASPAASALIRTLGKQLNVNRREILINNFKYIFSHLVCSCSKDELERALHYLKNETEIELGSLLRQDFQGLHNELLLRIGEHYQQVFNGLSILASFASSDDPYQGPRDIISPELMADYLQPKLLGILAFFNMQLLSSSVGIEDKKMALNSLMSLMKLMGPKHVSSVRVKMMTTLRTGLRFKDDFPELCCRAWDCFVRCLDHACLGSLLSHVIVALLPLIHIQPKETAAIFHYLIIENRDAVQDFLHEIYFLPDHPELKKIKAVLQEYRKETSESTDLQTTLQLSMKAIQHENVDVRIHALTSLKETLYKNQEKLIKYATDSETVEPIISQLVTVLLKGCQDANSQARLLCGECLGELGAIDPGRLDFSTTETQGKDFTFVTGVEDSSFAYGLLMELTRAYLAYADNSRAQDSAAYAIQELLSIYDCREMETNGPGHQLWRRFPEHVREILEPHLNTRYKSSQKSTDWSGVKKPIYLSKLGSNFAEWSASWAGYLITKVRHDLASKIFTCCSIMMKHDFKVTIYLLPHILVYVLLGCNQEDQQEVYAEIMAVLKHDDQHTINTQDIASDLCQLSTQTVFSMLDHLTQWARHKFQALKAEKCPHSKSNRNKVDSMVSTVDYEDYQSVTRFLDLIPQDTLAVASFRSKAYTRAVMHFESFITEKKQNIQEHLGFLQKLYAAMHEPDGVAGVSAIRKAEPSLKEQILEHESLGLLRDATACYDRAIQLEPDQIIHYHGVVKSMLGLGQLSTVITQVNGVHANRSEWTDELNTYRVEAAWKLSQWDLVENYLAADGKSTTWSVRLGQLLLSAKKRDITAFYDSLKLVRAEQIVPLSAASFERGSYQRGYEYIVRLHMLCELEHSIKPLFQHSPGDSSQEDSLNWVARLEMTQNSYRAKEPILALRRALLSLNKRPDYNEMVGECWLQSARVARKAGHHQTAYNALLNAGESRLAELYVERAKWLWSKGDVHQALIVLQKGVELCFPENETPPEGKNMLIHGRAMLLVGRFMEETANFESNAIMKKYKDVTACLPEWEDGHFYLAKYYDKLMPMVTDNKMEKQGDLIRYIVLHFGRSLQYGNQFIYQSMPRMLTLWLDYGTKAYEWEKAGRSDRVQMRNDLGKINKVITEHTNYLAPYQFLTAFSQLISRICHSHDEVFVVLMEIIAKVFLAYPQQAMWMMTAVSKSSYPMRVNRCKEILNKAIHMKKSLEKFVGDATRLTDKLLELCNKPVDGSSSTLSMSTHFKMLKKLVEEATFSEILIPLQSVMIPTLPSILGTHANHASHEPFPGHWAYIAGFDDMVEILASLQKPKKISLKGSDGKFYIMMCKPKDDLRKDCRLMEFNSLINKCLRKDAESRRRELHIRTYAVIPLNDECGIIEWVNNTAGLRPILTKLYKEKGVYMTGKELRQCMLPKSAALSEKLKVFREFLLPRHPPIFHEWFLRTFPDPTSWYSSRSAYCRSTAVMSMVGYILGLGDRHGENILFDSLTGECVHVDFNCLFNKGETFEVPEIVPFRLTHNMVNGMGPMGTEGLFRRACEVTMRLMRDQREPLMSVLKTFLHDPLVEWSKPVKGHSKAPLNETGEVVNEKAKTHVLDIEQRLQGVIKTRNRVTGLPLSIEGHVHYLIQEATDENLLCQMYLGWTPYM
Sequence of human ATR kinase (ATR/ATRIP (h)) (Q8WXE1 whole entry partner): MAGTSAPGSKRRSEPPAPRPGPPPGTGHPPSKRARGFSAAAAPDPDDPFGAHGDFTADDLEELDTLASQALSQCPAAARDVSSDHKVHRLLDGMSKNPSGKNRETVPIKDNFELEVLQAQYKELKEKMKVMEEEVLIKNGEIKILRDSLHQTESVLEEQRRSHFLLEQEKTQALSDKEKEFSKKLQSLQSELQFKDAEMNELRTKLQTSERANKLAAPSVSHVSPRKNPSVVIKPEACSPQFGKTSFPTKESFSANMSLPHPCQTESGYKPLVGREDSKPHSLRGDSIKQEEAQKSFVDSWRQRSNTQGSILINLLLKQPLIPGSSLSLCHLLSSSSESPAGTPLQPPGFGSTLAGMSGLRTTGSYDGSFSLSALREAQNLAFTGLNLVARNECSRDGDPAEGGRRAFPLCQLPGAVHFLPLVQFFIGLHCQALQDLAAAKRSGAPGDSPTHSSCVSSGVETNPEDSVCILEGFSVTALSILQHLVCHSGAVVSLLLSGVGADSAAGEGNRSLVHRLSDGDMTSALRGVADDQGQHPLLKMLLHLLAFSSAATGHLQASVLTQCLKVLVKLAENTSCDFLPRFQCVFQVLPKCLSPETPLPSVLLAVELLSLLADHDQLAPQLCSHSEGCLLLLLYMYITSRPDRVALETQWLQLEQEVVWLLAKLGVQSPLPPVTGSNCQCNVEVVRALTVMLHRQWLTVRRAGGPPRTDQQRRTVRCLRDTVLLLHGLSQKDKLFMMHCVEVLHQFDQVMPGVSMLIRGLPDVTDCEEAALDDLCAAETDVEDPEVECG

IC50 [1]: 336 nM
Compound: C[C@@H]1COCCN1c1cc(-c2cccn2C)cc(-c2c(F)ncc3[nH]ccc23)n1 [Compound 5]

IC50 [1]: 211 nM
Compound: C[C@@H]1COCCN1c1cc(-c2cnnn2C)cc(-c2c(F)ncc3[nH]ccc23)n1 [Compound 6]

IC50 [1]: 500 nM
Compound: Cc1nn(C)cc1-c1cc(-c2c(F)ncc3[nH]ccc23)nc(N2CCOC[C@H]2C)c1 [Compound 13]

IC50 [1]: 69 nM
IC50 [2]: 234 nM
Compound: Cc1nnc(C)n1-c1cc(-c2c(F)ncc3[nH]ccc23)nc(N2CCOC[C@H]2C)c1 [Compound 2]

IC50 [1]: 182 nM
Compound: COc1cc(C)c(-c2cc(-c3c(F)ncc4[nH]ccc34)nc(N3CCOC[C@H]3C)c2)cn1 [Compound 10]

IC50 [1]: 57 nM
Compound: Cc1cnn(C)c1-c1cc(-c2c(F)ncc3[nH]ccc23)nc(N2CCOC[C@H]2C)c1 [Compound 14]

IC50 [1]: 78 nM
Compound: Cc1noc(C)c1-c1cc(-c2c(F)ncc3[nH]ccc23)nc(N2CCOC[C@H]2C)c1 [Compound 16]

IC50 [1]: 31 nM
Compound: Cc1n[nH]c(C)c1-c1cc(-c2c(F)ncc3[nH]ccc23)nc(N2CCOC[C@H]2C)c1 [Compound 9]

C0 ([3]; mouse, intravenous 1 mg/kg, plasma): 2.8 µM
AUC(0-t) [3, 5]: 2.55 µM·h
clearance [3, 5]: 15.8 mL/min/kg
half-life [3, 5]: 1.32 h
Vd ([3]; mouse, plasma, intravenous 1 mg/kg, read-out: Vdss): 1.65 L/kg
AUC(0-t) ([3]; mouse, plasma, oral 10 mg/kg): 23 µM·h
Cmax ([3]; mouse, plasma, oral 10 mg/kg): 9.56 µM
half-life ([3]; mouse, plasma, oral 10 mg/kg): 1.4 h
AUC(0-t) ([3]; mouse, plasma, oral 25 mg/kg): 82 µM·h
Cmax ([3]; mouse, plasma, oral 25 mg/kg): 17.4 µM
half-life ([3]; mouse, plasma, oral 25 mg/kg): 3.8 h
F ([3]; oral 10 mg/kg vs intravenous 1 mg/kg): 91.6%
IC50 [1]: 33 nM
IC50 [2]: 102 nM
animal state [4, 6]: had no abnormality
Compound: Cc1nnn(C)c1-c1cc(-c2c(F)ncc3[nH]ccc23)nc(N2CCOC[C@H]2C)c1 [Compound 1]
tumor volume ([4]; oral 5 mg/kg (continuous administration)): 229.99±24.42 mm^3
tumor inhibition rate TGI ([4]; oral 5 mg/kg (continuous administration), day 21, p<0.01): 88.61%
tumor volume ([4]; oral 10 mg/kg (3 days on, 4 days off)): 136.74±14.46 mm^3
tumor inhibition rate TGI ([4]; oral 10 mg/kg (3 days on, 4 days off), day 21, P<0.01): 101.08%
tumor volume ([4]; oral 15 mg/kg (3 days on, 4 days off)): 108.74±9.67 mm^3
tumor inhibition rate TGI ([4]; oral 15 mg/kg (3 days on, 4 days off), day 21, p<0.01): 104.81%
body weight of the animals [4, 6]: did not decrease significantly

IC50 [1]: 425 nM
Compound: Cc1ccccc1-c1cc(-c2c(F)ncc3[nH]ccc23)nc(N2CCOC[C@H]2C)c1 [Compound 8]

IC50 [1]: 78 nM
Compound: Cc1ncccc1-c1cc(-c2c(F)ncc3[nH]ccc23)nc(N2CCOC[C@H]2C)c1 [Compound 7]

IC50 [1]: 204 nM
Compound: C[C@@H]1COCCN1c1cc(-c2ccnn2C)cc(-c2c(F)ncc3[nH]ccc23)n1 [Compound 15]
